Tests used:
[1] = Maximum (initial) soluble concentration in Aromatic 200 solvent by UV/vis; assay type: physicochemical; conditions: for Measured Initial Concentration: Aromatic 200 (ATOSOL 200ND), targeted 10 wt% solution, filtered, diluted in xylenes, UV/vis against 0.5 and 1.7 wt% calibration
[2] = Storage stability in Aromatic 200 solvent at -10° C.; assay type: physicochemical; conditions: -10° C. freezer
Experimental: Storage stability experiments of Examples 1-3 as well as Comparative Examples 4 and 5 as well as Comparative Example 6 (a 50:50 molar physical blend of Comparative Examples 4 and 5) are conducted as follows. For each Example, a calibration line is generated by preparing 0.5 and 1.7 wt% solutions of each Example using a batch of Aromatic 200 supplied from TOTAL, identified as ATOSOL 200ND, and measuring the UV/vis absorbance at these known concentrations. The solutions are heated to 60° C. with stirring overnight and allowed to cool to ambient temperature for at least several hours, preferably overnight. For the 0.5 and 1.7 wt% solutions for each marker, UV/vis measurements are prepared by diluting an aliquot of each solution (exact weight recorded) into a known amount of xylenes to target an absorbance value below approximately 2.5. […] For other Examples, several drops of the targeted 10 wt% solution are filtered and a known amount of the filtrate is diluted with a known amount of xylenes to target an absorbance value below approximately 2.5. The initial concentration is determined by measuring the absorbance value of a known concentration of the filtered and diluted aliquot taken from the targeted 10 wt% solution. The expected UV/vis absorbance value of the aliquot is calculated based on the calibration standards, and this value is compared against the actual measured absorbance value. […]

Storage stability: Concentration after storage at -10° C., 4 days [2]	Structure (SMILES)	Measured Initial Concentration [1]	Solubility of calibration solution in Aromatic 200 (solids observed) ([1]; 1.7 wt% solution in Aromatic 200, heated to 60° C. overnight, cooled to ambient)
4.2 wt%	CCCCc1ccc(Nc2ccc(Nc3ccc(CCCC)cc3)c3c2C(=O)c2c(Nc4ccc(CCCC)cc4)ccc(Nc4ccc(CCCC)cc4)c2C3=O)cc1 [Comparative Example 4, 1,4,5,8-tetrakis(4-(n-butyl)phenylamino)anthracene-9,10-dione]	7.0 wt%	
	Cc1ccc(Nc2ccc(Nc3ccc(C)cc3)c3c2C(=O)c2c(Nc4ccc(C)cc4)ccc(Nc4ccc(C)cc4)c2C3=O)cc1 [Comparative Example 5, 1,4,5,8-tetrakis(4-methylaniline)anthracene-9,10-dione]	Solids observed at 1.7%, no measurement	solids are observed at 1.7 wt%

From patent US20230250292A1, “AROMATIC HYDROCARBON-SOLUBLE ANTHRAQUINONE” (Dow Global Technologies LLC, priority 2020, published 2023)
